Laboratory results as given in patent publication US12304890B2, “R-type pyridyloxycarboxylic acid, salt and ester derivative thereof, and preparation method therefor, and herbicidal composition and application thereof” (Qingdao Kingagroot Chemical Compound Co., Ltd., priority 2018, dated 2025).

What was measured:
Format in all cases: in vivo
Echinochloa crusgalli = assay: Post-emergence test experiment, Echinochloa crusgalli; conditions: 1000 g a.i./ha, 3 weeks in greenhouse, fresh weight inhibition
Outline: (§1)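 Greenhouse-grown plants sprayed at the 2-3 leaf stage, 2 weeks after sowing, with compound in acetone/tween-80 diluted in water plus 1.5 L/ha methyl oleate emulsifiable concentrate as synergist. Effect scored 3 weeks later as fresh weight inhibition rate.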

Digitaria sanguinalis = assay: Post-emergence test experiment, Digitaria sanguinalis; conditions: 1000 g a.i./ha, 3 weeks in greenhouse, fresh weight inhibition
Outline: as §1

[1] = test system: Monocotyledonous and dicotyledonous weed seeds and main crop seeds; assay: Post-emergence test experiment, other weeds and crops (Table 4, 1000 g a.i./ha); conditions: 3 weeks in greenhouse, fresh weight inhibition
Outline: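 Weed and crop seeds (wheat, corn, rice, soybean, cotton, oilseed, millet, sorghum) sown in soil pots in a greenhouse and sprayed at 2-3 leaf stage, 2 weeks after sowing. Compound in acetone/tween-80 with methyl oleate concentrate (1.5 L/ha) as synergist. Effect recorded as fresh-weight growth inhibition rate.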

Row | Structure (SMILES) | Activity level (growth inhibition rate), Echinochloa crusgalli (Echinochloa crusgalli) | Activity level (growth inhibition rate), Digitaria sanguinalis (Digitaria sanguinalis) | Activity level (growth inhibition rate), Abutilon theophrasti Medic. [1] | Activity level (growth inhibition rate), Galium aparine [1] | Activity level (growth inhibition rate), Monochoria Vaginalis [1]
1 | CC(Oc1nc(F)c(Cl)c(N)c1Cl)C(=O)O.CN(C)CCO (stereo not drawn) [Compound 2-14] | 5 (Level 5: the growth inhibition rate is greater than 85%) | 5 (Level 5: the growth inhibition rate is greater than 85%) | 5 (Level 5: the growth inhibition rate is greater than 85%) | 5 (Level 5: the growth inhibition rate is greater than 85%) | 5 (Level 5: the growth inhibition rate is greater than 85%)
2 | CCC(C)OC(=O)[C@@H](C)Oc1nc(F)c(Cl)c(N)c1Cl (stereo partly drawn) [Compound 2-81] | 5 (Level 5: the growth inhibition rate is greater than 85%) | 5 (Level 5: the growth inhibition rate is greater than 85%) | 5 (Level 5: the growth inhibition rate is greater than 85%) | 5 (Level 5: the growth inhibition rate is greater than 85%) | 5 (Level 5: the growth inhibition rate is greater than 85%)
3 | CC(Oc1nc(F)c(Cl)c(N)c1Cl)C(=O)OCC(F)(F)C(F)(F)F (stereo not drawn) [Compound 2-282] | 5 (Level 5: the growth inhibition rate is greater than 85%) | 5 (Level 5: the growth inhibition rate is greater than 85%) | 5 (Level 5: the growth inhibition rate is greater than 85%) | 5 (Level 5: the growth inhibition rate is greater than 85%) | 5 (Level 5: the growth inhibition rate is greater than 85%)
4 | C[C@@H](Oc1nc(F)c(Cl)c(N)c1Cl)C(=O)OCc1ccccc1C#N [Compound 2-333] | 5 (Level 5: the growth inhibition rate is greater than 85%) | 5 (Level 5: the growth inhibition rate is greater than 85%) | 5 (Level 5: the growth inhibition rate is greater than 85%) | 5 (Level 5: the growth inhibition rate is greater than 85%) | 5 (Level 5: the growth inhibition rate is greater than 85%)
5 | C[C@@H](Oc1nc(F)c(Cl)c(N)c1Cl)C(=O)OCc1cccc2ccccc12 [Compound 2-341] | 5 (Level 5: the growth inhibition rate is greater than 85%) | 5 (Level 5: the growth inhibition rate is greater than 85%) | 5 (Level 5: the growth inhibition rate is greater than 85%) | 5 (Level 5: the growth inhibition rate is greater than 85%) | 5 (Level 5: the growth inhibition rate is greater than 85%)
6 | C[C@@H](Oc1nc(F)c(Cl)c(N)c1Cl)C(=O)OCc1ccc(C#N)cc1 [Compound 2-337] | 5 (Level 5: the growth inhibition rate is greater than 85%) | 5 (Level 5: the growth inhibition rate is greater than 85%) | 5 (Level 5: the growth inhibition rate is greater than 85%) | 5 (Level 5: the growth inhibition rate is greater than 85%) | 5 (Level 5: the growth inhibition rate is greater than 85%)
7 | Cc1cn(C)nc1SC(=O)[C@@H](C)Oc1nc(F)c(Cl)c(N)c1Cl [Compound 2-365] | 5 (Level 5: the growth inhibition rate is greater than 85%) | 5 (Level 5: the growth inhibition rate is greater than 85%) | 5 (Level 5: the growth inhibition rate is greater than 85%) | 5 (Level 5: the growth inhibition rate is greater than 85%) | 5 (Level 5: the growth inhibition rate is greater than 85%)
8 | CCCCCCOC(=O)[C@@H](C)Oc1nc(F)c(Cl)c(N)c1Cl [Compound 2-101] | 5 (Level 5: the growth inhibition rate is greater than 85%) | 5 (Level 5: the growth inhibition rate is greater than 85%) | 5 (Level 5: the growth inhibition rate is greater than 85%) | 5 (Level 5: the growth inhibition rate is greater than 85%) | 5 (Level 5: the growth inhibition rate is greater than 85%)
9 | CC(C)CCCOC(=O)[C@@H](C)Oc1nc(F)c(Cl)c(N)c1Cl [Compound 2-107] | 5 (Level 5: the growth inhibition rate is greater than 85%) | 5 (Level 5: the growth inhibition rate is greater than 85%) | 5 (Level 5: the growth inhibition rate is greater than 85%) | 5 (Level 5: the growth inhibition rate is greater than 85%) | 5 (Level 5: the growth inhibition rate is greater than 85%)
10 | CC(C)SC(=O)[C@@H](C)Oc1nc(F)c(Cl)c(N)c1Cl [Compound 2-76] | 5 (Level 5: the growth inhibition rate is greater than 85%) | 5 (Level 5: the growth inhibition rate is greater than 85%) | 5 (Level 5: the growth inhibition rate is greater than 85%) | 5 (Level 5: the growth inhibition rate is greater than 85%) | 5 (Level 5: the growth inhibition rate is greater than 85%)
11 | CCCCCCCCSC(=O)[C@@H](C)Oc1nc(F)c(Cl)c(N)c1Cl [Compound 2-156] | 5 (Level 5: the growth inhibition rate is greater than 85%) | 5 (Level 5: the growth inhibition rate is greater than 85%) | 5 (Level 5: the growth inhibition rate is greater than 85%) | 5 (Level 5: the growth inhibition rate is greater than 85%) | 5 (Level 5: the growth inhibition rate is greater than 85%)
12 | C[C@@H](Oc1nc(F)c(Cl)c(N)c1Cl)C(=O)Sc1ccc2ccccc2c1 [Compound 2-339] | 5 (Level 5: the growth inhibition rate is greater than 85%) | 5 (Level 5: the growth inhibition rate is greater than 85%) | 5 (Level 5: the growth inhibition rate is greater than 85%) | 5 (Level 5: the growth inhibition rate is greater than 85%) | 5 (Level 5: the growth inhibition rate is greater than 85%)
13 | CCC(CC)SC(=O)[C@@H](C)Oc1nc(F)c(Cl)c(N)c1Cl [Compound 2-98] | 5 (Level 5: the growth inhibition rate is greater than 85%) | 5 (Level 5: the growth inhibition rate is greater than 85%) | 5 (Level 5: the growth inhibition rate is greater than 85%) | 5 (Level 5: the growth inhibition rate is greater than 85%) | 5 (Level 5: the growth inhibition rate is greater than 85%)
14 | CC(Oc1nc(F)c(Cl)c(N)c1Cl)C(=O)SCc1ccc(F)cc1 (stereo not drawn) [Compound 2-313] | 5 (Level 5: the growth inhibition rate is greater than 85%) | 5 (Level 5: the growth inhibition rate is greater than 85%) | 5 (Level 5: the growth inhibition rate is greater than 85%) | 5 (Level 5: the growth inhibition rate is greater than 85%) | 5 (Level 5: the growth inhibition rate is greater than 85%)
15 | C[C@@H](Oc1nc(F)c(Cl)c(N)c1Cl)C(=O)SC(N)=O [Compound 2-373] | 5 (Level 5: the growth inhibition rate is greater than 85%) | 5 (Level 5: the growth inhibition rate is greater than 85%) | 5 (Level 5: the growth inhibition rate is greater than 85%) | 5 (Level 5: the growth inhibition rate is greater than 85%) | 5 (Level 5: the growth inhibition rate is greater than 85%)
